Results taken from PubChem BioAssay (NCI).
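96-well plates; 48 h exposure; 5 concentrations. Endpoints by linear interpolation between flanking doses. Not reached: highest tested concentration assigned. GI50 is the concentration that inhibits growth by half. Definition used: TGI = concentration required for complete inhibition of growth.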

What was measured:
Assay in all cases: NCI tumour cell line growth inhibition, 48 h
RXF 393 renal = tested on: RXF 393 renal
BT-549 breast = tested on: BT-549 breast
NCI-H522 lung = tested on: NCI-H522 lung
CAKI-1 renal = tested on: CAKI-1 renal
EKVX NSCLC = tested on: EKVX NSCLC
SNB-75 CNS = tested on: SNB-75 CNS
KM12 colon = tested on: KM12 colon
SF-539 CNS = tested on: SF-539 CNS
SK-OV-3 ovarian = tested on: SK-OV-3 ovarian
SW-620 colon = tested on: SW-620 colon

## O=C1CCCCCCCC/C=C/CCC(c2ccco2)O1 (centres undefined)
RXF 393 renal
  GI50: > 100 µM
  TGI: > 100 µM
BT-549 breast
  GI50: 37.1 µM
  TGI: > 100 µM
NCI-H522 lung
  GI50: 37.7 µM
  TGI: > 100 µM
CAKI-1 renal
  GI50: > 100 µM
  TGI: > 100 µM
EKVX NSCLC
  GI50: > 100 µM
  TGI: > 100 µM
SNB-75 CNS
  GI50: 23.7 µM
  TGI: 92 µM
KM12 colon
  GI50: 20.7 µM
  TGI: > 100 µM
SF-539 CNS
  GI50: 60.5 µM
  TGI: > 100 µM
SK-OV-3 ovarian
  GI50: > 100 µM
  TGI: > 100 µM
SW-620 colon
  GI50: 58.3 µM
  TGI: > 100 µM

## C=C1CC[C@@]2(C#N)[C@H]3[C@H](CC[C@@H]2C)[C@@H](C)C[C@@H](CC(C)(C)C#N)[C@H]13
RXF 393 renal
  GI50: 5.85 µM
  TGI: 22.8 µM
BT-549 breast
  GI50: 1.23 µM
  TGI: 18.8 µM
NCI-H522 lung
  GI50: 10.8 µM
  TGI: 57.9 µM
CAKI-1 renal
  GI50: 1.73 µM
  TGI: > 100 µM
EKVX NSCLC
  GI50: 1.12 µM
  TGI: 45.7 µM
SNB-75 CNS
  GI50: 0.215 µM
  TGI: 0.705 µM
KM12 colon
  GI50: 0.471 µM
  TGI: 18.9 µM
SF-539 CNS
  GI50: 0.609 µM
  TGI: 17.5 µM
SK-OV-3 ovarian
  GI50: 6.6 µM
  TGI: 77.9 µM
SW-620 colon
  GI50: 4.65 µM
  TGI: 22.1 µM

## c1cc2c(cc1C(N1CCNCC1)N1CCNCC1)OCO2
RXF 393 renal
  TGI: > 100 µM
BT-549 breast
  TGI: > 100 µM
NCI-H522 lung
  TGI: > 100 µM
CAKI-1 renal
  TGI: > 100 µM
EKVX NSCLC
  TGI: > 100 µM
SNB-75 CNS
  TGI: > 100 µM
KM12 colon
  TGI: > 100 µM
SF-539 CNS
  TGI: > 100 µM
SK-OV-3 ovarian
  TGI: > 100 µM
SW-620 colon
  TGI: > 100 µM

## Cc1ccccc1CN1CC2=C(CCN(Cc3ccccc3)C2=O)N2CCN=C12
RXF 393 renal
  TGI: > 100 µM
BT-549 breast
  TGI: > 100 µM
NCI-H522 lung
  TGI: > 100 µM
CAKI-1 renal
  TGI: > 100 µM
EKVX NSCLC
  TGI: > 100 µM
SNB-75 CNS
  TGI: > 100 µM
KM12 colon
  TGI: > 100 µM
SF-539 CNS
  TGI: > 14.1 µM
SK-OV-3 ovarian
  TGI: > 52.6 µM
SW-620 colon
  TGI: > 100 µM

## c1ccc2[nH]c(SSc3nc4ncncc4[nH]3)nc2c1
RXF 393 renal
  GI50: 32.1 µM
  TGI: > 100 µM
BT-549 breast
  GI50: 2.89 µM
  TGI: > 100 µM
NCI-H522 lung
  GI50: 0.383 µM
CAKI-1 renal
  GI50: 0.212 µM
  TGI: 3.77 µM
EKVX NSCLC
  GI50: 25.9 µM
  TGI: > 100 µM
SNB-75 CNS
  GI50: 13.1 µM
  TGI: > 100 µM
KM12 colon
  GI50: 3.85 µM
  TGI: > 100 µM
SF-539 CNS
  GI50: 0.989 µM
  TGI: > 100 µM
SK-OV-3 ovarian
  GI50: 0.37 µM
  TGI: 34.2 µM
SW-620 colon
  GI50: 3.24 µM
  TGI: > 100 µM

## Cc1ccccc1C(=O)C#Cc1cn(C2CC(O)C(CO)O2)c(=O)[nH]c1=O (centres undefined)
RXF 393 renal
  TGI: > 100 µM
BT-549 breast
  TGI: > 100 µM
NCI-H522 lung
  TGI: 28.7 µM
CAKI-1 renal
  TGI: > 100 µM
EKVX NSCLC
  TGI: > 100 µM
SNB-75 CNS
  TGI: > 100 µM
KM12 colon
  TGI: > 100 µM
SF-539 CNS
  TGI: > 100 µM
SK-OV-3 ovarian
  TGI: > 100 µM
SW-620 colon
  TGI: > 100 µM

## CN(C)CCCN=C(N)N
RXF 393 renal
  TGI: > 100 µM
BT-549 breast
  TGI: > 100 µM
NCI-H522 lung
  TGI: > 100 µM
CAKI-1 renal
  TGI: > 100 µM
EKVX NSCLC
  TGI: > 100 µM
SNB-75 CNS
  TGI: > 100 µM
KM12 colon
  TGI: > 100 µM
SF-539 CNS
  TGI: > 100 µM
SK-OV-3 ovarian
  TGI: > 100 µM
SW-620 colon
  TGI: > 100 µM
